# Test results: patent US20120142766A1, “SUBSTITUTED 1,3-DIOXANES AND THEIR USES” (EVOLVA SA, priority 2007, published 2012)
# “And” between values parts separate entries of the source, which are not always exact repeats. Identical values can stand only once.
# How the values were obtained:
# [1] = tested on: arterial thrombosis in a mouse model; assay: Arterial thrombosis mouse model (FeCl3 on femoral artery); assay type: in vivo; details: i.v.
# Experimental: The solutions are diluted 3.3-fold in saline and 100 μl/25 g is injected. Thus, the above-mentioned doses of 100 and 300 mg/kg of compound correspond to final doses of 30 and 100 mg/kg.
# During the experiments, a soluble salt of the drug is provided (potassium salt of compound C), diluted in saline. Of this formulation, 100 μl/25 g is injected i.v. in the tail vein (dose of 100 mg/kg).
# Solutions are injected (100 μl/25 g body weight) i.v. in the tail vein over 2 min to obtain doses of each compound of 30 mg/kg and 100 mg/kg. Aspirin is given the same way at a dose of 200 mg/kg. Clopidogrel is administered by oral gavage at a dose of 20 mg/kg at 6-7 hours prior to the experiment. The animals assigned to each group are matched for body weight. Mice are typically 8-10 weeks old males and are in a 100% Swiss genetic background.
# The flow in each image is expressed as a percentage of that at the contralateral side, and data are averaged for all 120 images to determine total flow. The same analysis is performed for 10 min intervals (which gives essentially the same information as the area under the curve). […] Flow before treatment is recorded as 100%, and that in occluded arteries as 0%. At the end of the experiment, blood is collected on 0.01M citrate by heart puncture for determination of blood cell counts. Plasma is prepared by centrifugation and stored at −20° C. for determination of drug levels.
# Statistical analysis for differences between two groups is performed by non-parametric Student t-test. Occlusion times >30 min were considered equal to 30 min for statistical analysis. Significance is set at p<0.05.
# [2] = target: T1, Human Recombinant (E. coli) PPARgamma (Homo sapiens, UniProt P37231); assay: PPAR gamma binding assay ([3H]-rosiglitazone); details: [3H]-rosiglitazone 10 nM
# T1 construct: host or cells: E. coli
# T1 sequence (P37231 1-505): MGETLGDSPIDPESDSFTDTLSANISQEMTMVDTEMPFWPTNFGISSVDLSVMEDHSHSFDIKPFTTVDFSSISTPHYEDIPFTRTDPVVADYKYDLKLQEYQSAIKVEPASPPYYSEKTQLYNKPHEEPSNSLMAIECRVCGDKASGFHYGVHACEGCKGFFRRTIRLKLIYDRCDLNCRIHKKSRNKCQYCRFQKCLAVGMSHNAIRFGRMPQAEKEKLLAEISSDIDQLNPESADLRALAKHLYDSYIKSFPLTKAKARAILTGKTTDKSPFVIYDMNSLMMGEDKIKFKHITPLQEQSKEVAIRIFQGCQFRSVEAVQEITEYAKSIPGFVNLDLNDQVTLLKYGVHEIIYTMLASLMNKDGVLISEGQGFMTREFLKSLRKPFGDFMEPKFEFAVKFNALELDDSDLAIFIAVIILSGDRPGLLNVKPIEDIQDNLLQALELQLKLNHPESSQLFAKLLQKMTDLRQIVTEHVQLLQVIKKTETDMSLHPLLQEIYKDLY
# Experimental: Incubation: 120 min. at 4° C.
# The results are expressed as a percent of control specific binding ((measured specific binding/control specific binding)×100) obtained in the presence of the test compounds. The IC50 values (concentration causing a half-maximal inhibition of control specific binding) and Hill coefficients (nil) were determined by non-linear regression analysis of the competition curves generated with mean replicate values using Hill equation curve fitting (Y=D+[(A−D)/(1+(C/C50)nH)], where Y=specific binding, D=minimum specific binding, A=maximum specific binding, C=compound concentration, C50=IC50, and nH=slope factor). This analysis was performed using a software developed at Cerep (Hill software) and validated by comparison with data generated by the commercial software SigmaPlot® 4.0 for Windows® (© 1997 by SPSS Inc.). The inhibition constants (Ki) were calculated using the Cheng Prusoff equation (Ki=IC50/(1+(L/KD)), where L=concentration of radioligand in the assay, and KD=affinity of the radioligand for the receptor).
# KKA^y mice = assay: KKAy mice on high fat diet, 14-day oral gavage BID; assay type: in vivo, mouse
# Experimental: 52 male KKA^y mice are obtained commercially (e.g., from Clea Japan) at an age of 6 weeks and put on a high fat diet upon arrival. Individual mice were housed in IVC Type II cages during both the acclimatization and the experimental phase. Both food (high fat diet) and water are supplied ad libitum.
# 1 animal per cage. […] Lights on at 06:00 a.m. Temperature: 21-25° C. Relative humidity target range: 55-60%.
# Mice were randomized into treatment groups according to their 4-h fasting blood glucose.
# 4 hours after the last administration, non-fasting conditions.
# Gamma irradiated high fat diet is commercially available (e.g., Research Diets, Inc. New Brunswick, N.J. (Product # D12266BI)).
# Blood is collected into heparin containing glass capillaries which are subsequently centrifuged in a “Haematokrit 24” centrifuge (Hettich) at 15′200×g for 10 minutes at room temperature to obtain the hematocrit value.
# The following serum parameters are determined on a COBAS INTEGRA 800 auto analyzer (Roche Diagnostics, Switzerland) using the reagents and protocols provided by the supplier.
# All measurements are made on Day 14 of administration, except for the food intake and body weight measurements that are made on Day 12.
# [3] = tested on: Human platelet rich plasma; assay: TP receptor platelet aggregation, human (U-46619-induced); assay type: cell-based; details: 3 μM U-46619-induced
# Experimental: Thrombosis Research 33:277-288.
# TP Receptor Platelet Aggregation—Human:
# Human (60±10 kg) platelet rich plasma
# Assay. Inhibition of 3 μM U-46619-induced platelet aggregation Incubation Time, Temp: 5 minutes at 37° C. Incubation Buffer Trisodium Citrate (0.13 M)-treated fresh platelet rich plasma
# Time of Assessment: 5 minutes
# Quantification Method Optical Density Change
# [4] = 53 mg/kg BID oral gavage, Day 12, mean ± S.E.M.
# [5] = 53 mg/kg BID oral gavage, Day 14, mean ± S.E.M.
# [6] = 14-day BID, enoic acid 53 mg/kg, rosiglitazone 5 mg/kg, Compounds 3 and 13 dose not stated
smiles,measurement,setting,value
"O=C(O)CC/C=C\C[C@@H]1CO[C@H](c2ccccc2Cl)O[C@@H]1c1ccccc1O [Compound C, (Z)-6-((2S,4S,5R)-2-(2-chlorophenyl)-4-(2-hydroxyphenyl)-1,3-dioxan-5-yl)hex-4-enoic acid]",Occlusion time,[1]; 30 mg/kg in vehicle,"slightly prolongs the occlusion time as compared to aspirin (p=0.024), but has no effect as compared to vehicle"
same,Total blood flow,[1]; 30 mg/kg in vehicle,no effect on total blood flow
same,Occlusion time,[1]; 100 mg/kg in vehicle,"prolongs the occlusion time versus aspirin (p=0.0002), but not versus vehicle only (p=0.095)"
same,Total blood flow,[1]; 100 mg/kg in vehicle,"slightly improved total blood flow as compared to aspirin (p=0.055), but not as compared to vehicle (p=0.45)"
same,Blood flow in the time window 0-10 min,"[1]; 100 mg/kg in vehicle, 0-10 min",significantly higher flow as compared to aspirin (p=0.0002) but not as compared to vehicle only (p=0.11)
same,Ki,"[2]; Cheng Prusoff, read-out: PPARγ binding Ki",1.8 µM and 4.3 µM
same,IC50,[2]; read-out: PPARγ binding IC50,4.9 µM and 12 µM
same,Body Weight,KKA^y mice; [4],45.4 ± 1.0 g
same,Food Intake,KKA^y mice; [4],5.0 ± 0.6 g/day
same,ALP,KKA^y mice; [5],21.5 ± 1.6 dU/L
same,ALT,KKA^y mice; [5],5.1 ± 0.6 dU/L
same,AST,KKA^y mice; [5],7.7 ± 1.0 dU/L
same,FFA,KKA^y mice; [5],1.7 ± 0.3 mM
same,Fructosamine,KKA^y mice; [5],0.41 ± 0.03 mM
same,HDL,KKA^y mice; [5],3.1 ± 0.2 mM
same,HbA1C,KKA^y mice; [5],7.8 ± 0.3 %
same,Heart weight,KKA^y mice; [5],208.5 ± 7.6 mg
same,Hematocrit,KKA^y mice; [5],40.1 ± 1.6%
same,Insulin,KKA^y mice; [5],39.1 ± 8.8 µg/L
same,Serum Glucose,KKA^y mice; [5],31.9 ± 3.6 mM
same,TG,KKA^y mice; [5],2.0 ± 0.3 mM
same,Total Cholesterol,KKA^y mice; [5],3.6 ± 0.3 mM
same,Body weight (in words),KKA^y mice; [6],do not alter body weight
same,Circulating glucose levels (in words),KKA^y mice; [6],decreased
same,FFA (in words),KKA^y mice; [6],decreases the FFA
same,HbA1c levels (in words),KKA^y mice; [6],decreased
same,Heart weight (in words),KKA^y mice; [6],no effect on heart weight
same,IC50,[3],0.31 µM
